Results: patent publication US20090253618A1, “NEURONAL DIFFERENTIATION-INDUCING PEPTIDE AND USE THEREOF” (TOAGOSEI CO., LTD, priority 2005, published 2009)
Ends that are not written are not given here.

Experiments:
[1] = test system: adipose stem cells procured from humans; assay: Neuronal differentiation-inducing activity in human adipose stem cell culture (immune antibody procedure, MAPs and NeuN markers); type: cell-based; conditions: same tests as for samples 1 and 6 (10 ng/mL and 100 ng/mL, 24 hours), concentration of the result not stated
[2] = test system: neural stem cells procured from mice; assay: Neuronal differentiation-inducing activity in mouse neural stem cell culture (immune antibody procedure, MAPs and NeuN markers); type: cell-based; conditions: same tests as for samples 1 and 6 (10 ng/mL and 100 ng/mL, 24 hours), concentration of the result not stated

Substance | degree of neuronal differentiation [1] | degree of neuronal differentiation [2]
YARAAARQARA-SLQYLCRFVIRQYTK (YARAAARQARASLQYLCRFVIRQYTK) [sample 18] | significant neuronal differentiation | significant neuronal differentiation
YARAAARQARA-PLAHLCRLRVRKAIG (YARAAARQARAPLAHLCRLRVRKAIG) [sample 7] | significant neuronal differentiation | significant neuronal differentiation
YARAAARQARA-TLQHFCRLAINKCT (YARAAARQARATLQHFCRLAINKCT) [sample 12] | significant neuronal differentiation | significant neuronal differentiation
YARAAARQARA-SLQYLCKFVI (YARAAARQARASLQYLCKFVI) [sample 22] | significant neuronal differentiation | significant neuronal differentiation
YARAAARQARA-SLQHICRMSIRRVMS (YARAAARQARASLQHICRMSIRRVMS) [sample 2] | significant neuronal differentiation | significant neuronal differentiation
YARAAARQARA-PLQELCRQRIVAAVG (YARAAARQARAPLQELCRQRIVAAVG) [sample 11] | significant neuronal differentiation | significant neuronal differentiation
YARAAARQARA-TLQHLCRKTVNGHLD (YARAAARQARATLQHLCRKTVNGHLD) [sample 13] | significant neuronal differentiation | significant neuronal differentiation
YARAAARQARA-SLQDLCCRAVVSCTP (YARAAARQARASLQDLCCRAVVSCTP) [sample 10] | significant neuronal differentiation | significant neuronal differentiation
YARAAARQARA-SLQHICRTVICNCTT (YARAAARQARASLQHICRTVICNCTT) [sample 14] | significant neuronal differentiation | significant neuronal differentiation
YARAAARQARA-PLMDLCRRSVRLALG (YARAAARQARAPLMDLCRRSVRLALG) [sample 20] | significant neuronal differentiation | significant neuronal differentiation
YARAAARQARA-SLQHLCRFRIRQLVR (YARAAARQARASLQHLCRFRIRQLVR) [sample 4] | significant neuronal differentiation | significant neuronal differentiation
YARAAARQARA-TLLSLCRVAVRRALG (YARAAARQARATLLSLCRVAVRRALG) [sample 3] | significant neuronal differentiation | significant neuronal differentiation
YARAAARQARA-ALFELCGRAV (YARAAARQARAALFELCGRAV) [sample 23, PTD4 plus 10 residues from the N terminal of the BC-box of MUF1] | significant neuronal differentiation | significant neuronal differentiation
YARAAARQARA-TLLSLCRVAV (YARAAARQARATLLSLCRVAV) [sample 16, PTD4 plus 10 residues from the N terminal of the BC-box of mASB-1] | significant neuronal differentiation | significant neuronal differentiation
YARAAARQARA-SLQHLCRLVINRLVA (YARAAARQARASLQHLCRLVINRLVA) [sample 24] | significant neuronal differentiation | significant neuronal differentiation
YARAAARQARA-SLTHLCRLEIRSSIK (YARAAARQARASLTHLCRLEIRSSIK) [sample 8] | significant neuronal differentiation | significant neuronal differentiation
YARAAARQARA-SLQYLALKALVTPKK (YARAAARQARASLQYLALKALVTPKK-NH2) [sample 19] | significant neuronal differentiation | significant neuronal differentiation
YARAAARQARA-SLQYLCRFVI (YARAAARQARASLQYLCRFVI) [sample 15, PTD4 plus 10 residues from the N terminal of the BC-box of hSOCS-6] | significant neuronal differentiation | significant neuronal differentiation
YARAAARQARA-SLKHLCRKALRSFLT (YARAAARQARASLKHLCRKALRSFLT) [sample 5] | significant neuronal differentiation | significant neuronal differentiation
YARAAARQARA-SLQHICRMSI (YARAAARQARASLQHICRMSI) [sample 17, PTD4 plus 10 residues from the N terminal of the BC-box of mWSB-1] | significant neuronal differentiation | significant neuronal differentiation
YARAAARQARA-SLQFLALKALISERR (YARAAARQARASLQFLALKALISERR-NH2) [sample 21] | significant neuronal differentiation | significant neuronal differentiation
YARAAARQARA-SLQYICRAVICRCTT (YARAAARQARASLQYICRAVICRCTT) [sample 9] | significant neuronal differentiation | significant neuronal differentiation
